Laboratory results taken from PubChem BioAssay AID1745844 (Carcinogenic Potency Database (CPDB), 2022).
Activity calls are given as the source filed them. How the calls were made is not given here.

System: rodent lifetime carcinogenesis bioassay, tumor incidence TD50
Assay: carcinogenic potency in animals, long-term in vivo studies, CPDB compilation (AID 1745844)

SMILES: CCOC(N)=O
- TD50 (hamster, strain Syrian Golden, females, in drinking water, site: adrenal gland, lesion: cortical carcinoma, dosed 90 weeks, study length 90 weeks): 349 mg/kg/day
- TD50 (hamster, strain Syrian Golden, females, in drinking water, site: adrenal gland, lesion: several types, types named in the paper, dosed 90 weeks, study length 90 weeks): 318 mg/kg/day
- TD50 (hamster, strain Syrian Golden, females, in drinking water, site: cecum, lesion: adenomatous polyp, dosed 90 weeks, study length 90 weeks): 294 mg/kg/day
- TD50 (hamster, strain Syrian Golden, females, in drinking water, site: dermis, lesion: melanocytoma, dosed 90 weeks, study length 90 weeks): 74.4 mg/kg/day
- TD50 (hamster, strain Syrian Golden, females, in drinking water, site: forestomach, lesion: carcinoma, dosed 90 weeks, study length 90 weeks): 374 mg/kg/day
- TD50 (hamster, strain Syrian Golden, females, in drinking water, site: forestomach, lesion: papilloma, dosed 55 weeks, study length 55 weeks): 102 mg/kg/day
- TD50 (hamster, strain Syrian Golden, females, in drinking water, site: forestomach, lesion: papilloma, dosed 90 weeks, study length 90 weeks): 44.5 mg/kg/day
- TD50 (hamster, strain Syrian Golden, females, in drinking water, site: gall bladder, lesion: papilloma, dosed 90 weeks, study length 90 weeks): 682 mg/kg/day
- TD50 (hamster, strain Syrian Golden, females, in drinking water, site: lung, lesion: adenoma, dosed 90 weeks, study length 90 weeks): 1360 mg/kg/day
- TD50 (hamster, strain Syrian Golden, females, in drinking water, site: ovary, lesion: carcinoma, dosed 90 weeks, study length 90 weeks): 682 mg/kg/day
- TD50 (hamster, strain Syrian Golden, females, in drinking water, site: skin, lesion: melanotic tumor, dosed 55 weeks, study length 55 weeks): 496 mg/kg/day
- TD50 (hamster, strain Syrian Golden, females, in drinking water, site: thyroid gland, lesion: several types, types named in the paper, dosed 90 weeks, study length 90 weeks): 538 mg/kg/day
- TD50 (hamster, strain Syrian Golden, females, in drinking water, site: vagina, lesion: carcinoma, dosed 90 weeks, study length 90 weeks): 314 mg/kg/day
- TD50 (hamster, strain Syrian Golden, males, in drinking water, site: adrenal gland, lesion: cortical adenoma, dosed 103 weeks, study length 103 weeks): 564 mg/kg/day
- TD50 (hamster, strain Syrian Golden, males, in drinking water, site: cecum, lesion: adenomatous polyp, dosed 103 weeks, study length 103 weeks): 765 mg/kg/day
- TD50 (hamster, strain Syrian Golden, males, in drinking water, site: dermis, lesion: melanocytoma, dosed 103 weeks, study length 103 weeks): 109 mg/kg/day
- TD50 (hamster, strain Syrian Golden, males, in drinking water, site: forestomach, lesion: carcinoma, dosed 103 weeks, study length 103 weeks): 135 mg/kg/day
- TD50 (hamster, strain Syrian Golden, males, in drinking water, site: forestomach, lesion: papilloma, dosed 76 weeks, study length 76 weeks): 95.8 mg/kg/day
- TD50 (hamster, strain Syrian Golden, males, in drinking water, site: forestomach, lesion: papilloma, dosed 103 weeks, study length 103 weeks): 64.2 mg/kg/day
- TD50 (hamster, strain Syrian Golden, males, in drinking water, site: liver, lesion: several types, types named in the paper, dosed 103 weeks, study length 103 weeks): 1280 mg/kg/day
- TD50 (hamster, strain Syrian Golden, males, in drinking water, site: lung, lesion: adenoma, dosed 103 weeks, study length 103 weeks): 927 mg/kg/day
- TD50 (hamster, strain Syrian Golden, males, in drinking water, site: skin, lesion: melanotic tumor, dosed 76 weeks, study length 76 weeks): 74.2 mg/kg/day
- TD50 (monkey, strain Cynomolgus [Macaca fascicularis], both sexes, in feed, site: any site (literature study), lesion: benign tumor, dosed 258 weeks, study length 1208 weeks): 128 mg/kg/day
- TD50 (monkey, strain Cynomolgus [Macaca fascicularis], both sexes, in feed, site: any site (literature study), lesion: malignant tumor, dosed 258 weeks, study length 1208 weeks): 21.5 mg/kg/day
- TD50 (monkey, strain Cynomolgus [Macaca fascicularis], both sexes, in feed, site: any site (literature study), lesion: several types, types named in the paper, dosed 258 weeks, study length 1208 weeks): 25.5 mg/kg/day
- TD50 (monkey, strain Cynomolgus [Macaca fascicularis], both sexes, in feed, site: liver, lesion: hemangiosarcoma, dosed 258 weeks, study length 1208 weeks): 95 mg/kg/day
- TD50 (monkey, strain Cynomolgus [Macaca fascicularis], both sexes, in feed, site: liver, lesion: hepatocellular adenoma, dosed 258 weeks, study length 1208 weeks): 31.7 mg/kg/day
- TD50 (monkey, strain Cynomolgus [Macaca fascicularis], both sexes, in feed, site: lung, lesion: bronchogenic carcinoma, dosed 258 weeks, study length 1208 weeks): 31.7 mg/kg/day
- TD50 (monkey, strain Cynomolgus [Macaca fascicularis], both sexes, in feed, site: pancreas, lesion: adenocarcinoma, dosed 258 weeks, study length 1208 weeks): 52.8 mg/kg/day
- TD50 (monkey, strain Cynomolgus [Macaca fascicularis], both sexes, in feed, site: several sites, pooled by Berkeley, lesion: several types, pooled by Berkeley, dosed 258 weeks, study length 1208 weeks): 16.4 mg/kg/day
- TD50 (monkey, strain Rhesus [Macaca mulatta], both sexes, in feed, site: adrenal gland, lesion: pheochromocytoma, dosed 258 weeks, study length 1281 weeks): 117 mg/kg/day
- TD50 (monkey, strain Rhesus [Macaca mulatta], both sexes, in feed, site: any site (literature study), lesion: benign tumor, dosed 258 weeks, study length 1281 weeks): 75.9 mg/kg/day
- TD50 (monkey, strain Rhesus [Macaca mulatta], both sexes, in feed, site: any site (literature study), lesion: malignant tumor, dosed 258 weeks, study length 1281 weeks): 52.9 mg/kg/day
- TD50 (monkey, strain Rhesus [Macaca mulatta], both sexes, in feed, site: any site (literature study), lesion: several types, types named in the paper, dosed 258 weeks, study length 1281 weeks): 26.3 mg/kg/day
- TD50 (monkey, strain Rhesus [Macaca mulatta], both sexes, in feed, site: cheek pouch, lesion: squamous-cell papilloma, dosed 258 weeks, study length 1281 weeks): 75.5 mg/kg/day
- TD50 (monkey, strain Rhesus [Macaca mulatta], both sexes, in feed, site: jejunum, lesion: adenocarcinoma, dosed 258 weeks, study length 1281 weeks): 65.2 mg/kg/day
- TD50 (monkey, strain Rhesus [Macaca mulatta], both sexes, in feed, site: liver, lesion: hemangiosarcoma, dosed 258 weeks, study length 1281 weeks): 143 mg/kg/day
- TD50 (monkey, strain Rhesus [Macaca mulatta], both sexes, in feed, site: liver, lesion: hepatocellular carcinoma, dosed 258 weeks, study length 1281 weeks): 143 mg/kg/day
- TD50 (monkey, strain Rhesus [Macaca mulatta], both sexes, in feed, site: several sites, pooled by Berkeley, lesion: several types, pooled by Berkeley, dosed 258 weeks, study length 1281 weeks): 44.8 mg/kg/day
- TD50 (mouse, strain B6AKF1, females, oral dosing, site: Harderian gland, lesion: adenoma, dosed 73 weeks, study length 73 weeks): 59.7 mg/kg/day
- TD50 (mouse, strain B6AKF1, females, oral dosing, site: all sites, lesion: angioma, dosed 73 weeks, study length 73 weeks): 31.7 mg/kg/day
- TD50 (mouse, strain B6AKF1, females, oral dosing, site: any site (literature study), lesion: several types, types named in the paper, dosed 73 weeks, study length 73 weeks): 9.73 mg/kg/day
- TD50 (mouse, strain B6AKF1, females, oral dosing, site: liver, lesion: hepatoma, dosed 73 weeks, study length 73 weeks): 89.9 mg/kg/day
- TD50 (mouse, strain B6AKF1, females, oral dosing, site: lung, lesion: adenoma, dosed 73 weeks, study length 73 weeks): 29.3 mg/kg/day
- TD50 (mouse, strain B6AKF1, females, oral dosing, site: lung, lesion: carcinoma, dosed 73 weeks, study length 73 weeks): 89.9 mg/kg/day
- TD50 (mouse, strain B6AKF1, females, oral dosing, site: lung, lesion: several types, types named in the paper, dosed 73 weeks, study length 73 weeks): 12.5 mg/kg/day
- TD50 (mouse, strain B6AKF1, males, oral dosing, site: Harderian gland, lesion: adenoma, dosed 72 weeks, study length 72 weeks): 35.8 mg/kg/day
- TD50 (mouse, strain B6AKF1, males, oral dosing, site: all sites, lesion: reticulum-cell sarcoma, dosed 72 weeks, study length 72 weeks): 77.9 mg/kg/day
- TD50 (mouse, strain B6AKF1, males, oral dosing, site: any site (literature study), lesion: several types, types named in the paper, dosed 72 weeks, study length 72 weeks): 11.2 mg/kg/day
- TD50 (mouse, strain B6AKF1, males, oral dosing, site: liver, lesion: hepatoma, dosed 72 weeks, study length 72 weeks): 39 mg/kg/day
- TD50 (mouse, strain B6AKF1, males, oral dosing, site: liver, lesion: several types, types named in the paper, dosed 72 weeks, study length 72 weeks): 26 mg/kg/day
- TD50 (mouse, strain B6AKF1, males, oral dosing, site: lung, lesion: adenoma, dosed 72 weeks, study length 72 weeks): 27.8 mg/kg/day
- TD50 (mouse, strain B6AKF1, males, oral dosing, site: lung, lesion: several types, types named in the paper, dosed 72 weeks, study length 72 weeks): 24.2 mg/kg/day
- TD50 (mouse, strain B6C3F1, females, oral dosing, site: any site (literature study), lesion: several types, types named in the paper, dosed 68 weeks, study length 68 weeks): 13.7 mg/kg/day
- TD50 (mouse, strain B6C3F1, females, oral dosing, site: liver, lesion: hepatoma, dosed 68 weeks, study length 68 weeks): 55.9 mg/kg/day
- TD50 (mouse, strain B6C3F1, females, oral dosing, site: liver, lesion: several types, types named in the paper, dosed 68 weeks, study length 68 weeks): 32.4 mg/kg/day
- TD50 (mouse, strain B6C3F1, females, oral dosing, site: lung, lesion: adenoma, dosed 68 weeks, study length 68 weeks): 97.4 mg/kg/day
- TD50 (mouse, strain B6C3F1, females, oral dosing, site: lung, lesion: several types, types named in the paper, dosed 68 weeks, study length 68 weeks): 79 mg/kg/day
- TD50 (mouse, strain B6C3F1, males, in drinking water, site: heart, lesion: hemangiosarcoma, dosed 65 weeks, study length 70 weeks): 417 mg/kg/day
- TD50 (mouse, strain B6C3F1, males, in drinking water, site: liver, lesion: hemangioma, dosed 65 weeks, study length 70 weeks): 63.3 mg/kg/day
- TD50 (mouse, strain B6C3F1, males, in drinking water, site: liver, lesion: hemangiosarcoma, dosed 65 weeks, study length 70 weeks): 122 mg/kg/day
- TD50 (mouse, strain B6C3F1, males, in drinking water, site: liver, lesion: hepatocellular adenoma, dosed 65 weeks, study length 70 weeks): 38.2 mg/kg/day
- TD50 (mouse, strain B6C3F1, males, in drinking water, site: lung, lesion: alveolar/bronchiolar adenoma, dosed 65 weeks, study length 70 weeks): 5.91 mg/kg/day
- TD50 (mouse, strain B6C3F1, males, in drinking water, site: lung, lesion: alveolar/bronchiolar carcinoma, dosed 65 weeks, study length 70 weeks): 242 mg/kg/day
- TD50 (mouse, strain B6C3F1, males, in drinking water, site: lung, lesion: several types, types named in the paper, dosed 65 weeks, study length 70 weeks): 5.91 mg/kg/day
- TD50 (mouse, strain B6C3F1, males, oral dosing, site: any site (literature study), lesion: several types, types named in the paper, dosed 70 weeks, study length 70 weeks): 22.4 mg/kg/day
- TD50 (mouse, strain B6C3F1, males, oral dosing, site: liver, lesion: hepatoma, dosed 70 weeks, study length 70 weeks): 81.7 mg/kg/day
- TD50 (mouse, strain B6C3F1, males, oral dosing, site: liver, lesion: several types, types named in the paper, dosed 70 weeks, study length 70 weeks): 46 mg/kg/day
- TD50 (mouse, strain B6C3F1, males, oral dosing, site: lung, lesion: adenoma, dosed 70 weeks, study length 70 weeks): 81.7 mg/kg/day
- TD50 (mouse, strain B6C3F1, males, oral dosing, site: lung, lesion: several types, types named in the paper, dosed 70 weeks, study length 70 weeks): 65.9 mg/kg/day
- TD50 (mouse, strain CF-1, females, in drinking water, site: any site (literature study), lesion: several types, types named in the paper, dosed 133 weeks, study length 133 weeks): 23.3 mg/kg/day
- carcinogen call (mouse, strain CF-1, females, in drinking water, site: liver, lesion: hepatoma, dosed 133 weeks, study length 133 weeks): negative (inactive)
- TD50 (mouse, strain CF-1, females, in drinking water, site: lung, lesion: one or several types, types not named, dosed 133 weeks, study length 133 weeks): 23.8 mg/kg/day
- TD50 (mouse, strain CF-1, males, in drinking water, site: any site (literature study), lesion: several types, types named in the paper, dosed 125 weeks, study length 125 weeks): 12.1 mg/kg/day
- carcinogen call (mouse, strain CF-1, males, in drinking water, site: liver, lesion: hepatoma, dosed 125 weeks, study length 125 weeks): negative (inactive)
- TD50 (mouse, strain CF-1, males, in drinking water, site: lung, lesion: one or several types, types not named, dosed 125 weeks, study length 125 weeks): 13.2 mg/kg/day
- TD50 (mouse, strain NMRI, both sexes, in drinking water, site: any site (literature study), lesion: benign tumor, dosed 101 weeks, study length 104 weeks): 0.434 mg/kg/day
- TD50 (mouse, strain NMRI, both sexes, in drinking water, site: any site (literature study), lesion: malignant tumor, dosed 101 weeks, study length 104 weeks): 14.7 mg/kg/day
- TD50 (mouse, strain Swiss, both sexes, in feed, site: lung, lesion: adenocarcinoma, dosed 116 weeks, study length 116 weeks): 5060 mg/kg/day
- TD50 (mouse, strain Swiss, both sexes, in feed, site: lung, lesion: adenoma, dosed 116 weeks, study length 116 weeks): 36.1 mg/kg/day
- TD50 (rat, strain Sprague-Dawley, both sexes, in drinking water, site: any site (literature study), lesion: benign tumor, dosed 97 weeks, study length 104 weeks): 91.2 mg/kg/day
- TD50 (rat, strain Sprague-Dawley, both sexes, in drinking water, site: any site (literature study), lesion: malignant tumor, dosed 97 weeks, study length 104 weeks): 41.3 mg/kg/day
